# Laboratory results published in patent US20090311237A1, “Combination therapy using a soluble hyaluronidase and a bisphosphonate” (priority 2008, published 2009).
# Values joined by “and” are separate entries in the source; they are usually repeats but may differ in a detail not shown here. Identical values can stand only once. Like-named read-outs stand apart in the source and are kept apart here.
# Test: Phase 1 Stage 1 clinical pharmacokinetics of SC ZA co-administered with rHuPH20
# Type: in vivo, human
# Parameters: key to Mean Conc. / Median Conc.: BLQ = blow limit for quantitation
# Settings: serum, serum; for MAT: subcutaneous, 100 mL, 24000 Units rHuPH20, read-out: MAT (mean absorption time = SC MRT − IV MRT); for half-life: read-out: T½ λz (converted)
# Method: A pharmacokinetic study of zoledronic acid (ZA) co-administered with rHuPH20 in human subjects was conducted. The primary objective of the study was to determine the bioavailability of zoledronic acid dosed via subcutaneous (SC) co-administration with human recombinant hyaluronidase PH20 (rHuPH20). […] The patients were administered the prescribed dosage formulations as follows: Cohorts 1-5 were administered a single subcutaneous infusion in a dosage volume of 100 ml at a rate of 3 mL/min. […] The dosing solution is administered via needle or catheter into the SC space of the left anterior thigh (midway between the anterior iliac crest and the cephalad border of the patella). For cohorts 1-5, the dosing solutions were administered by a controlled rate infusion pump at approximately 3 mL/minute. […] The dosing solutions were administered by syringe push bolus injection. […] Serum concentration of ZA was determined using a qualified LC-MS-MS assay after derivatization with diazomethane (Zhu, L S et al. (2006) Rapid Commun. […] The assay range was from 2.0 to 400 ng/mL with a lower limit of quantitation (LLOQ) at 2.0 ng/mL. […] Non-compartmental analysis was used for derivation of primary and secondary pharmacokinetic (PK) parameters. […] Summary statistics (mean, standard deviation, and median) were calculated using JMP or Microsoft Excel.
# [1] = ZA 0.25 mg SC infusion + 24000 Units rHuPH20, 12 h post infusion, n=3
# [2] = ZA 0.25 mg SC infusion + 24000 Units rHuPH20, 24 h post infusion, n=3
# [3] = ZA 0.25 mg SC infusion + 24000 Units rHuPH20, 48 h post infusion, n=3
structure (smiles),measurement,setting,value
"O=P(O)(O)C(O)(Cn1ccnc1)P(=O)(O)O [ZA, 1-hydroxy-2-(1H-imidazol-1-yl)ethylidene-1,1-bisphosphonic acid]",concentration at 6 h,"human, sc, ZA 5 mg SC infusion + 24000 Units rHuPH20, 6 h post infusion, n=3, read-out: Median Conc.",22.3 ng/mL
same,concentration at 8 h,"human, sc, ZA 5 mg SC infusion + 24000 Units rHuPH20, 8 h post infusion, individual subjects, read-out: Zoledronic Acid Concentration",9.44 ng/mL
same,concentration at 8 h,"human, sc, ZA 5 mg SC infusion + 24000 Units rHuPH20, 8 h post infusion, n=3, read-out: Mean Conc.",11 ng/mL
same,concentration at 8 h,"human, sc, ZA 5 mg SC infusion + 24000 Units rHuPH20, 8 h post infusion, n=3, read-out: Median Conc.",11 ng/mL
same,concentration at 12 h,"human, sc, ZA 5 mg SC infusion + 24000 Units rHuPH20, 12 h post infusion, individual subjects, read-out: Zoledronic Acid Concentration",3.91 ng/mL
same,concentration at 12 h,"human, sc, ZA 5 mg SC infusion + 24000 Units rHuPH20, 12 h post infusion, n=3, read-out: Mean Conc.",4.51 ng/mL
same,concentration at 12 h,"human, sc, ZA 5 mg SC infusion + 24000 Units rHuPH20, 12 h post infusion, n=3, read-out: Median Conc.",4.61 ng/mL
same,concentration at 24 h,"human, sc, ZA 5 mg SC infusion + 24000 Units rHuPH20, 24 h post infusion, individual subjects, read-out: Zoledronic Acid Concentration",2.15 ng/mL
same,concentration at 24 h,"human, sc, ZA 5 mg SC infusion + 24000 Units rHuPH20, 24 h post infusion, n=3, read-out: Mean Conc.",2.45 ng/mL
same,concentration at 24 h,"human, sc, ZA 5 mg SC infusion + 24000 Units rHuPH20, 24 h post infusion, n=3, read-out: Median Conc.",2.23 ng/mL
same,concentration at 48 h,"human, sc, ZA 5 mg SC infusion + 24000 Units rHuPH20, 48 h post infusion, individual subjects, read-out: Zoledronic Acid Concentration",1.28 ng/mL
same,concentration at 48 h,"human, sc, ZA 5 mg SC infusion + 24000 Units rHuPH20, 48 h post infusion, n=3, read-out: Mean Conc.",1.55 ng/mL
same,concentration at 48 h,"human, sc, ZA 5 mg SC infusion + 24000 Units rHuPH20, 48 h post infusion, n=3, read-out: Median Conc.",1.63 ng/mL
same,MAT,"human, 0.5 mg, ZA 0.5 mg SC, individual subjects",0.96 h
same,MAT,"human, 1 mg, ZA 1 mg SC, individual subjects",1.68 h
same,half-life,"human, Subj 1, ZA 0.0045 mg/kg SC, inf 0.554 hr, PH20 23928 U",113 min
same,half-life,"human, Subj 8, ZA 0.0032 mg/kg SC, inf 0.531 hr, PH20 22944 U",185 min
same,half-life,"human, Subj 11, ZA 0.0033 mg/kg SC, inf 0.554 hr, PH20 23928 U",132 min
same,half-life,"human, Subj 21, ZA 0.0066 mg/kg SC, inf 0.556 hr, PH20 24000 U",136 min
same,half-life,"human, Subj 29, ZA 0.0339 mg/kg SC, inf 0.556 hr, PH20 24000 U",522 min
same,half-life,"human, Subj 32, ZA 0.0350 mg/kg SC, inf 0.556 hr, PH20 24000 U",1320 min
same,half-life,"human, Subj 37, ZA 0.0791 mg/kg SC, inf 0.556 hr, PH20 24000 U",1400 min
same,half-life,"human, Subj 38, ZA 0.0706 mg/kg SC, inf 0.554 hr, PH20 23952 U",1470 min
same,half-life,"human, Subj 46, ZA 0.0877 mg/kg SC, inf 0.276 hr, PH20 12000 U",1250 min
same,half-life,"human, Subj 71, ZA 0.0781 mg/kg SC, inf 0.250 hr, PH20 6000 U",1150 min
same,half-life,"human, Subj 74, ZA 0.0794 mg/kg SC, inf 0.250 hr, PH20 6000 U",1420 min
same,Zoledronic Acid Concentration,"ZA 0.25 mg SC infusion + 24000 Units rHuPH20, 0 h post infusion, individual subjects, listed as Zoledronic Acid",4.69 ng/mL
same,Zoledronic Acid Concentration,"ZA 0.25 mg SC infusion + 24000 Units rHuPH20, 10 min post infusion, individual subjects, listed as Zoledronic Acid",4.97 ng/mL and 4.87 ng/mL
same,Zoledronic Acid Concentration,"ZA 0.25 mg SC infusion + 24000 Units rHuPH20, 0.5 h post infusion, individual subjects, listed as Zoledronic Acid",5.17 ng/mL and 6.25 ng/mL
same,Zoledronic Acid Concentration,"ZA 0.25 mg SC infusion + 24000 Units rHuPH20, 1 h post infusion, individual subjects, listed as Zoledronic Acid",5.67 ng/mL and 6.60 ng/mL
same,Zoledronic Acid Concentration,"ZA 0.25 mg SC infusion + 24000 Units rHuPH20, 2 h post infusion, individual subjects, listed as Zoledronic Acid",4.33 ng/mL and 5.44 ng/mL
same,Zoledronic Acid Concentration,"ZA 0.25 mg SC infusion + 24000 Units rHuPH20, 4 h post infusion, individual subjects, listed as Zoledronic Acid",3.45 ng/mL and 3.06 ng/mL
same,Zoledronic Acid Concentration,"ZA 0.25 mg SC infusion + 24000 Units rHuPH20, 6 h post infusion, individual subjects, listed as Zoledronic Acid",2.02 ng/mL and 1.35 ng/mL
same,Zoledronic Acid Concentration,"ZA 0.25 mg SC infusion + 24000 Units rHuPH20, 8 h post infusion, individual subjects, listed as Zoledronic Acid",1.11 ng/mL and 0.79 ng/mL
same,Zoledronic Acid Concentration,"ZA 0.25 mg SC infusion + 24000 Units rHuPH20, 12 h post infusion, individual subjects",BLQ < (0.500) ng/mL
same,Mean Conc.,[1],BLQ
same,Median Conc.,[1],BLQ
same,Zoledronic Acid Concentration,"ZA 0.25 mg SC infusion + 24000 Units rHuPH20, 24 h post infusion, individual subjects",BLQ < (0.500) ng/mL
same,Mean Conc.,[2],BLQ
same,Median Conc.,[2],BLQ
same,Zoledronic Acid Concentration,"ZA 0.25 mg SC infusion + 24000 Units rHuPH20, 48 h post infusion, individual subjects",BLQ < (0.500) ng/mL
same,Mean Conc.,[3],BLQ
same,Median Conc.,[3],BLQ
same,Zoledronic Acid Concentration,"ZA 0.5 mg SC infusion + 24000 Units rHuPH20, 0 h post infusion, individual subjects, listed as Zoledronic Acid",13.60 ng/mL
